In patent publication US20090169474A1, “METHOD FOR NONINVASNELY AND QUANTITATIVELY MONITORING THERAPEUTIC AND DIAGNOSTIC TRANSGENE EXPRESSION INDUCED BY EX VNO AND IN VNO GENE TARGETING IN ORGANS, TISSUES AND CELLS” (The Regentsf of the University of California, priority 2006, published 2009):

What was measured:
[1] = tested on: HSV1-sr39tk reporter gene expression in cardiac allografts; assay: Micro-PET imaging of [18F]FHBG / [18F]FDG accumulation; type: in vivo; conditions: recipient rabbit with gene transfected donor heart in the neck
Protocol: Micro-PET scan was performed on postoperative days 2, 4, 6, 8, 12, 20, and 28 in the IL-10 gene therapy group and days 2, 4, 6, and 8 in the control group. Recipient rabbits were intravenously injected with 1 mCi of [^18F]FHBG PET reporter probe. After a 1-h rest to allow for tracer uptake and clearance, the rabbits were imaged with a micro-PET-P4 (Primate P4; Concorde Microsystems, Inc., Knoxville, Tenn., USA) for 45 min over the neck and chest. Micro-PET image data were reconstructed by filtered back-projection and were reoriented into short, vertical, and horizontal long axis slices. From regions of interest on the anterolateral wall (short axis cut), derived counts/pixel/min were converted to counts/ml/min using a calibration constant obtained from scanning a cylindrical phantom. The regions-of-interest (ROI) counts/ml/min were converted to counts/g/min (assuming a tissue density of 1 g/ml) and divided by the injected dose to obtain an image ROI-derived [^18F]FHBG percentage injected dose per gram of heart (% ID/g). The total myocardial accumulation of [^18F]FHBG was corrected for background activity in each region of interest, summed for the 12 slices, and expressed as % ID=(total activity in 12 regions of interest (ROI), left ventricle (LV) (MBq)-total activity in 12 ROI BG (MBq))/injected dose (MBq)×100. […]

[2] = tested on: wild-type HSV1-tk and HSV1-sr39tk PET reporter genes; assay: In vivo imaging of PET reporter genes with reporter probes
From the text: Two main categories of substrates, uracil nucleoside derivatives labelled with radioactive iodine (e.g., I-labelled 2′fluoro-2′-deoxy-1-β-D-arabinofura-nosyl-5-iodo-uracilc(FIAU)), and acycloguanosine derivatives labelled with radioactive ^18F-fluorine (e.g., 9-[(4-[^18F]-fluoro-3-hydroxymethylbutyl)guanine (FHBG) and 8-[^18F]fluropenciclorivr (FPCV)), have been investigated as reporter probes for imaging HSV1-tk reporter gene expression.

| Compound | localization of probe activity on micro-PET [1] | effectiveness as probe for in vivo imaging, compared with FPCV [2] |
| --- | --- | --- |
| 2-[^18F]fluoro-2-deoxy-d-glucose [[^18F]FDG] | in the donor heart as well as in the recipient's heart and skeletal muscle of limb and neck |  |
| Nc1nc2c(ncn2CCC(CO)C[18F])c(=O)[nH]1 (stereo not drawn) [[^18F]FHBG, 9-(4-[^18F]fluoro-3-hydroxymethylbutyl)guanine] | only in targeted donor heart in the neck | more effective probe |
